Reference: ChEMBL document CHEMBL1156829 (Proc Natl Acad Sci U S A, 2008)

How the values were obtained:
[1] = tested on: Plasmodium falciparum; assay: NOVARTIS: Inhibition of Plasmodium falciparum W2 (drug-resistant) proliferation in erythrocyte-based infection assay; format: functional, organism-based; settings: Plasmodium falciparum, W2; read-out: EC50
[2] = NOVARTIS: Cytotoxicity against human hepatocellular carcinoma cell line (Huh7); format: toxicity, cell-based, Huh-7; settings: Huh7 cells (hepatocellular carcinoma cell line)
[3] = tested on: Plasmodium falciparum; assay: NOVARTIS: Inhibition of Plasmodium falciparum 3D7 (drug-susceptible) proliferation in erythrocyte-based infection assay; format: functional, organism-based; settings: Plasmodium falciparum, 3D7

COc1ccc(-c2cc3c(nn2)-c2ccccc2C3=O)cc1
EC50 [1]: 1640 nM
CC50 [2]: 65800 nM
EC50 [3]: 3840 nM

CC=C[C@H]1O[C@@](O)([C@@H](C)C(O)C(C)[C@H]2OC(=O)C(OC)=CC(C)=C[C@@H](C)[C@@H](O)[C@@H](C)[C@@H](O)C(C)CC(C)=CC=C[C@@H]2OC)C[C@@H](O[C@H]2C[C@@H](O)[C@H](OC(N)=O)[C@@H](C)O2)[C@@H]1C (some centres not stated)
EC50 [1]: 240 nM
CC50 [2]: > 10000 nM
EC50 [3]: > 1670 nM

CN1CCN(c2ccc(Nc3ccnc4ccccc34)cc2)CC1
EC50 [1]: 237 nM
CC50 [2]: > 10000 nM
EC50 [3]: 220 nM

FC(F)(F)c1cccc(-c2cc(NCCCn3ccnc3)nc(-c3ccncc3)n2)c1
EC50 [1]: 186 nM
CC50 [2]: > 7720 nM
EC50 [3]: 204 nM

CC(=O)CSc1nnc(-c2ccncc2)n1C
EC50 [1]: 310 nM
CC50 [2]: > 12700 nM
EC50 [3]: > 1250 nM

O=C(O)Cn1cnc2nc3n(c2c1=O)CCC3
EC50 [1]: 2420 nM
CC50 [2]: > 100000 nM
EC50 [3]: > 10400 nM

Oc1cccc(Nc2nc(NCc3ccco3)c3ccccc3n2)c1
EC50 [1]: 279 nM
CC50 [2]: 11500 nM
EC50 [3]: 275 nM

COC(=O)c1ccnn(-c2ccccc2)c1=O
EC50 [1]: 319 nM
CC50 [2]: 12900 nM
EC50 [3]: > 1690 nM

N=c1n(CCN2CCCC2)c2ccccc2n1CC(O)c1ccc(Cl)c(Cl)c1 (configuration not stated)
EC50 [1]: 257 nM
CC50 [2]: 10900 nM
EC50 [3]: 83 nM

O=C(NC(c1ccccc1)c1ccccc1)N(Cc1ccccc1)CC(O)CN(CCN1CCOCC1)S(=O)(=O)Cc1ccccc1 (configuration not stated)
EC50 [1]: 162 nM
CC50 [2]: > 6820 nM
EC50 [3]: 115 nM

Cc1c(CN2CCC(N3CCC(C(=O)NC4CC4)CC3)CC2)[nH]c2c(Cl)cccc12
EC50 [1]: 1400 nM
CC50 [2]: 56500 nM
EC50 [3]: 345 nM

CCC(SC1=Nc2ccccc2C2=NC(C(C)C)C(=O)N12)C(=O)Nc1cccc(C)c1 (configuration not stated)
EC50 [1]: 2400 nM
CC50 [2]: > 100000 nM
EC50 [3]: 7020 nM

O=C(c1ccccc1F)N1CCN(Cc2ccccc2C(F)(F)F)CC1
EC50 [1]: 2470 nM
CC50 [2]: > 100000 nM
EC50 [3]: 511 nM

Cc1cc(O)ccc1-c1cnc2ccccc2n1
EC50 [1]: 241 nM
CC50 [2]: > 10000 nM
EC50 [3]: > 541 nM

O=C1CC(c2nc3ccccc3n2CCCOc2ccccc2)CN1c1ccc(F)cc1 (configuration not stated)
EC50 [1]: 239 nM
CC50 [2]: > 10000 nM
EC50 [3]: > 882 nM

O=C(NCc1ccccc1)c1cnc(NCCCn2ccnc2)nc1NCCc1ccccc1
EC50 [1]: 320 nM
CC50 [2]: 12800 nM
EC50 [3]: 205 nM

N#Cc1ccccc1Cn1nc(-c2cccnc2)oc1=O
EC50 [1]: 2380 nM
CC50 [2]: > 100000 nM
EC50 [3]: > 12500 nM

CCN(CC)C(=O)N1CCN(c2ccc(Nc3ccnc4cc5ccccc5cc34)cc2)CC1
EC50 [1]: 2470 nM
CC50 [2]: > 100000 nM
EC50 [3]: 961 nM

COC(=O)c1cnn(-c2ccccc2)c1C=NOC(=O)c1ccccc1
EC50 [1]: 2380 nM
CC50 [2]: > 100000 nM
EC50 [3]: > 5290 nM

CC(C)CN(CC(=O)Nc1cc(C(C)(C)C)nn1-c1ccccc1)C(=O)COc1ccccc1
EC50 [1]: 432 nM
CC50 [2]: 17600 nM
EC50 [3]: 773 nM

CCOc1ccc2[nH]c(=O)c(CN(CCN3CCCC3)C(=S)Nc3ccc(F)cc3)cc2c1
EC50 [1]: 2510 nM
CC50 [2]: > 100000 nM
EC50 [3]: 1820 nM

CN1CCN(Nc2ccnc3cc4ccccc4cc23)CC1
EC50 [1]: 246 nM
CC50 [2]: > 10000 nM
EC50 [3]: 104 nM

COc1ccccc1C=CC1=NC(=Cc2ccc(SC)cc2)C(=O)O1
EC50 [1]: 2510 nM
CC50 [2]: > 100000 nM
EC50 [3]: 2040 nM

CCN(c1ccccc1)S(=O)(=O)c1ccc(F)c(C(=O)Nc2c(C)cccc2C)c1
EC50 [1]: 2450 nM
CC50 [2]: > 100000 nM
EC50 [3]: > 12500 nM

CSc1nnc(CCNC(=O)c2c(-c3ccccc3)noc2C)n1-c1ccc(F)cc1
EC50 [1]: 2410 nM
CC50 [2]: > 100000 nM
EC50 [3]: > 12500 nM

Cc1nc(NN=Cc2ccccc2O)cc(N2CCCCC2)n1
EC50 [1]: 237 nM
CC50 [2]: > 10000 nM
EC50 [3]: 1080 nM

COC(=O)C1=CN(Cc2ccc(Cl)cc2)C=C(C(=O)OC)C1c1ccc(Cl)c(Cl)c1
EC50 [1]: 2360 nM
CC50 [2]: > 100000 nM
EC50 [3]: > 8190 nM

COc1ccc(Nc2nc(Nc3ccc(OC)cc3)c3ccccc3n2)cc1
EC50 [1]: 51.9 nM
CC50 [2]: 2100 nM
EC50 [3]: 57.3 nM

COc1ccc(-n2nc(C(=O)NCC(=O)NCCCN3CC(C)CC(C)C3)c3ccccc3c2=O)cc1Cl (configuration not stated)
EC50 [1]: 1870 nM
CC50 [2]: 76400 nM
EC50 [3]: > 7360 nM

Brc1ccc(-c2n(Cc3ccccc3)c3ccccc3[n+]2Cc2ccccc2)o1
EC50 [1]: 260 nM
CC50 [2]: 11000 nM
EC50 [3]: 167 nM

Cc1ccc(S(=O)(=O)Nn2c(SCC(=O)NCCc3ccc(S(N)(=O)=O)cc3)nc3ccccc3c2=O)cc1
EC50 [1]: 2490 nM
CC50 [2]: > 100000 nM
EC50 [3]: > 12500 nM

Cc1ccc(-c2nc(CS(=O)(=O)CC(=O)NC3CCC(C)CC3)c(C)o2)cc1 (configuration not stated)
EC50 [1]: > 244 nM
CC50 [2]: > 10000 nM
EC50 [3]: > 1250 nM

Cc1ccc(O)c(NC(=O)c2cnn3c(C(F)(F)F)cc(-c4ccc(Br)cc4)nc23)c1
EC50 [1]: 2480 nM
CC50 [2]: > 100000 nM
EC50 [3]: 7450 nM

CCCCN1C=Nc2cc(C(=O)NCc3ccc(OC)cc3)ccc2C1
EC50 [1]: 243 nM
CC50 [2]: > 10000 nM
EC50 [3]: 463 nM

Clc1ccccc1-c1nc([P+](c2ccccc2)(c2ccccc2)c2ccccc2)c(N2CCOCC2)o1
EC50 [1]: 238 nM
CC50 [2]: 10100 nM
EC50 [3]: 350 nM

CN(c1ccccc1)S(=O)(=O)c1ccc(C(=O)Nc2ccc(-c3nc4ccccc4[nH]3)cc2)cc1
EC50 [1]: 1040 nM
CC50 [2]: 42800 nM
EC50 [3]: 788 nM

COc1cc(OC)cc(-n2nc(C(=O)NCCCN3CC(C)CC(C)C3)c3ccccc3c2=O)c1 (configuration not stated)
EC50 [1]: 2440 nM
CC50 [2]: > 100000 nM
EC50 [3]: > 12500 nM

COc1ccc(S(=O)(=O)Nc2ccc(N3CCC(Cc4ccccc4)CC3)c(C(=O)NC(C)C)c2)cc1
EC50 [1]: 2430 nM
CC50 [2]: > 100000 nM
EC50 [3]: 2120 nM

Cc1ccc(N2CCN(CCNCc3ccc(F)cc3)[C@@H](Cc3ccc(O)cc3)C2)cc1
EC50 [1]: 240 nM
CC50 [2]: > 10000 nM
EC50 [3]: 443 nM

Cc1oc(-c2cccs2)nc1CN1CCC(CO)(CCOc2ccccc2)CC1
EC50 [1]: 2350 nM
CC50 [2]: > 100000 nM
EC50 [3]: 8470 nM

Cc1ccc(-c2c[n+](Cc3cccc(C)c3)c3n2CCC3)cc1
EC50 [1]: 493 nM
CC50 [2]: 20600 nM
EC50 [3]: 568 nM

CC(Oc1ccc(Cl)cc1Cl)c1nc(-c2ccc(NC(=O)c3cccs3)cc2)no1 (configuration not stated)
EC50 [1]: 631 nM
CC50 [2]: 25600 nM
EC50 [3]: 429 nM

COc1ccc(Nc2ncnc3[nH]c(-c4cccc([N+](=O)[O-])c4)cc23)cc1
EC50 [1]: 2500 nM
CC50 [2]: > 100000 nM
EC50 [3]: 2490 nM

CN(CCCNc1ccnc2cc(Cl)ccc12)S(=O)(=O)c1cccc2cccnc12
EC50 [1]: 249 nM
CC50 [2]: > 10000 nM
EC50 [3]: 188 nM

COC(=O)C1=CNC=C(C(=O)OC)C1c1cc(OC)c(OC)cc1OC
EC50 [1]: 245 nM
CC50 [2]: > 10000 nM
EC50 [3]: > 1350 nM

COc1ccc(-c2c[n+](CC(=O)O[C@H]3C[C@H](C)CC[C@@H]3C(C)C)c3n2CCCCC3)cc1
EC50 [1]: 404 nM
CC50 [2]: 16500 nM
EC50 [3]: 450 nM

COc1ccccc1CNC(=O)CCC1N=C2c3ccccc3N=C(SCC(=O)Nc3ccc(F)cc3)N2C1=O (configuration not stated)
EC50 [1]: 2510 nM
CC50 [2]: > 100000 nM
EC50 [3]: 5290 nM

CCOc1ccccc1-n1c(C(C)N(Cc2ccccc2)C(=O)Nc2cccc3ccccc23)nc2ccccc2c1=O (configuration not stated)
EC50 [1]: 242 nM
CC50 [2]: > 10000 nM
EC50 [3]: 855 nM

Cc1c(C(=O)Nc2ccccc2)sc2ncn(Cc3ccccc3Cl)c(=O)c12
EC50 [1]: 2420 nM
CC50 [2]: > 100000 nM
EC50 [3]: 5400 nM

CCCOc1ccc(NC(=O)c2ccco2)cc1
EC50 [1]: 406 nM
CC50 [2]: 16900 nM
EC50 [3]: 1150 nM

CC[C@@]1(O)C[C@H](O[C@@H]2CC(N(C)C)[C@@H](O[C@@H]3C[C@@H](O)[C@@H](O[C@@H]4CCC(=O)[C@@H](C)O4)C(C)O3)[C@@H](C)O2)c2c(cc3c(c2O)C(=O)c2c(O)ccc(O)c2C3=O)[C@H]1C(=O)OC (some centres not stated)
EC50 [1]: 79.2 nM
CC50 [2]: 3370 nM
EC50 [3]: 87.7 nM

CCOc1ccccc1C(=O)NC(Nc1sc2c(c1C(N)=O)CCCC2)(C(F)(F)F)C(F)(F)F
EC50 [1]: 2490 nM
CC50 [2]: > 100000 nM
EC50 [3]: > 7500 nM

O=C1CSC(=NN=Cc2cccnc2)N1c1ccccc1
EC50 [1]: 2490 nM
CC50 [2]: > 100000 nM
EC50 [3]: > 12500 nM

O=C(Nc1ccccc1O)c1ccc(C(=O)N(C2CCCCC2)C2CCCCC2)cc1
EC50 [1]: > 2450 nM
CC50 [2]: > 100000 nM
EC50 [3]: 1470 nM

COc1ccc(/C=C(/C#N)C(=O)Nc2cccc3ccccc23)cc1
EC50 [1]: > 241 nM
CC50 [2]: > 10000 nM
EC50 [3]: > 1160 nM

COc1ccccc1N1C(=N)SC(=Cc2ccc(N(C)C)cc2)C1=O
EC50 [1]: 52.5 nM
CC50 [2]: 2220 nM
EC50 [3]: 101 nM

CCOc1ccc2nc(C)cc(Nc3ccc(Br)cc3)c2c1
EC50 [1]: 182 nM
CC50 [2]: 7290 nM
EC50 [3]: 114 nM

COc1cc(OC)cc(C(=O)N(C)CCCNc2ccnc3cc(Cl)ccc23)c1
EC50 [1]: 116 nM
CC50 [2]: 4700 nM
EC50 [3]: 143 nM

CCC(c1nc2ccccc2c(=O)n1-c1ccccc1OC)N(CCc1ccccc1)C(=O)c1ccc(F)cc1 (configuration not stated)
EC50 [1]: 180 nM
CC50 [2]: > 7250 nM
EC50 [3]: 1020 nM

CCCC[C@@H](C)C(O)[C@H]1C(=O)N[C@@H](CC)C(=O)N(C)CC(=O)N(C)[C@@H](CC(C)C)C(=O)N[C@@H](C(C)C)C(=O)N(C)[C@@H](CC(C)C)C(=O)N[C@@H](C)C(=O)N[C@H](C)C(=O)N(C)[C@@H](CC(C)C)C(=O)N(C)[C@@H](CC(C)C)C(=O)N(C)[C@@H](C(C)C)C(=O)N1C (some centres not stated)
EC50 [1]: 251 nM
CC50 [2]: > 10000 nM
EC50 [3]: 859 nM

COC(=O)c1ccc(C2C3=C(O)CC(c4cccs4)CC3=Nc3ccccc3N2C(=O)c2ccccc2)cc1 (configuration not stated)
EC50 [1]: 625 nM
CC50 [2]: 25000 nM
EC50 [3]: 436 nM

CCN1/C(=C/C2=CC(=C/c3sc4ccccc4[n+]3CC)/CC(C)(C)C2)C=Cc2ccccc21
EC50 [1]: 1030 nM
CC50 [2]: 42200 nM
EC50 [3]: 486 nM

CN(C)c1ccc(N=Cc2ccc(N3CCOCC3)cc2)cc1
EC50 [1]: 235 nM
CC50 [2]: > 10000 nM
EC50 [3]: 175 nM

CCn1ncc(CN2CCC(C(=O)Nc3ccccc3-c3cccc(OC)c3)CC2)c1C
EC50 [1]: 1160 nM
CC50 [2]: 47600 nM
EC50 [3]: > 12500 nM
